The record followed here is article PMC4579554, “Isolation and characterisation of transport-defective substrate-binding mutants of the tetracycline antiporter TetA(B)” (Biochimica et Biophysica Acta, 2015).

Assay [1] deals with T1, TetA(B)-His10 (Escherichia coli, UniProt P02980).
T1 construct: full length (401 residues), C-terminal His10 tag kept, pET21b, expressed in E. coli C43, purified in LMNG
Nature of the assay: isothermal titration calorimetry. It is filed as binding. An excerpt:
isothermal titration calorimetry on TetA(B)-His10
A general note: ITC needs no label: the signal is the heat of the interaction.

The target of assay [2] is TetA(B)-Δ394–401-Thrombin-His12 (Escherichia coli, UniProt P02980, DEL195-199/DEL203-207). Nature of the assay: biochemical. An excerpt:
isothermal titration calorimetry on TetA(B)-Δ394–401-Thrombin-His12

Assay [3] addresses T2, TetA(B)-Δ394–401-Thrombin-His12 (Escherichia coli, UniProt P02980, DEL394-401).
T2 construct: C-terminal truncation of residues 394-401, thrombin site and His12 tag (also printed as His10) kept, pET21b, expressed in E. coli C43, purified in LMNG
Nature of the assay: isothermal titration calorimetry. It is filed as binding.

What is called Kd is the free concentration of one partner at which half of the binding sites on the other are occupied at equilibrium, for simple one-to-one binding. A lower Kd goes with a tighter complex.

T1 sequence (P02980 whole entry): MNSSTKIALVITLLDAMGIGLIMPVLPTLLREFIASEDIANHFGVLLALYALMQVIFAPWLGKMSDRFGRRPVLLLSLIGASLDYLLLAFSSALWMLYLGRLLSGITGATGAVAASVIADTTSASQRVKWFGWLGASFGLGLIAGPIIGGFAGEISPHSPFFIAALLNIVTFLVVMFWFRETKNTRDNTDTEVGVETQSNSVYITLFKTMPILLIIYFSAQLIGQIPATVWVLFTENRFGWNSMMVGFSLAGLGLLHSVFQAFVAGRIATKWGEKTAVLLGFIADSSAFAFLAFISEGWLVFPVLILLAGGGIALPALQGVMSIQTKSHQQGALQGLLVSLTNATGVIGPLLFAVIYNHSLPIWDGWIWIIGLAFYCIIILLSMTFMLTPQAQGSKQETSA
TetA(B)-Δ394–401-Thrombin-His12 (Escherichia coli, UniProt P02980, DEL195-199/DEL203-207), sequence (P02980 1-393, stated change not applied): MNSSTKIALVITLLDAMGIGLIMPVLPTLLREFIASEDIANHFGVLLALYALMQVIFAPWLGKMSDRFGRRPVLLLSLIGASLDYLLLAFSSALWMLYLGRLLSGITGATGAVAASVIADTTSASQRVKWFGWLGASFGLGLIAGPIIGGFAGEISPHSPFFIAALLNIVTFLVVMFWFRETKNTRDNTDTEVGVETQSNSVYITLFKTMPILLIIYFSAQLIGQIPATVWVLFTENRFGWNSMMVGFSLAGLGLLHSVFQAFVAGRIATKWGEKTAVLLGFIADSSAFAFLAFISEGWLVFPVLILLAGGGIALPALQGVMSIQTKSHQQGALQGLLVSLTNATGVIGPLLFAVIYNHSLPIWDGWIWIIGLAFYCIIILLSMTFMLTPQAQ
T2 sequence (P02980 1-393, stated change not applied): as above

For `CN(C)[C@@H]1C(=O)C(C(N)=O)=C(O)[C@@]2(O)C(=O)C3=C(O)c4c(O)cccc4[C@@](C)(O)[C@H]3C[C@@H]12` [tetracycline], the Kd came out at 7.3 ± 0.5 µM in assay [1], 17.5 ± 0.5 µM in assay [2] and 10 ± 2 µM in assay [3].
